Measured values reported in US6613760B1, “Indole derivatives and their use as MCP-1 receptor antagonists” (AstraZeneca AB, priority 1999, dated 2003).

Legend:
hMCP-1 receptor = molecular target: T1, hMCP-1 receptor (Homo sapiens, UniProt P41597); experiment: 125I MCP-1 binding to human peripheral blood mononuclear cells (PBMCs); conditions: 100 pM 125I-labeled MCP-1, 37° C. 60 minutes
T1 construct: endogenous in cells; host or cells: human PBMCs from fresh donor blood (whole cells)
T1 sequence (P41597 1-360 isoform P41597-2): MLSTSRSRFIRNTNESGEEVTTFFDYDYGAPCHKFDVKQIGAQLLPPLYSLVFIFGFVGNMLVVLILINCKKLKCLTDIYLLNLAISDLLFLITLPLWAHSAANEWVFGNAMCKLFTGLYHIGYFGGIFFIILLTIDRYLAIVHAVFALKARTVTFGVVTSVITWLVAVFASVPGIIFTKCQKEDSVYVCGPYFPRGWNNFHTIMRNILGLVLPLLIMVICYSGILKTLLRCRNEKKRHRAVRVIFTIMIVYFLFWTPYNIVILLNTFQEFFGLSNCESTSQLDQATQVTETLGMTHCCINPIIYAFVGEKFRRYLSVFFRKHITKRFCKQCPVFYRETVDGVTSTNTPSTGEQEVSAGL
Protocol: Fresh human blood (200 ml) was obtained from volunteer donors, collected into sodium citrate anticoagulant to give a final concentration of 0.38%. The blood was mixed with Sedimentation Buffer and incubated at 37° C. for 20 minutes. The supernatant was collected and centrifuged at 1700 rpm for 5 minutes (Sorvall RT6000D). The pellet obtained was resuspended in 20 ml RPMI/BSA (1 mg/ml) and 4×5 mls of cells were carefully layered over 4×5 mls of Lymphoprepa (Nycomed) in 15 ml centrifuge tubes. Tubes were spun at 1700 rpm for 30 minutes (Sorvall RT6000D) and the resultant layer of cells was removed and transferred to 50 ml Falcon tubes. The cells were washed twice in Lysis Buffer to remove any remaining red blood cells followed by 2 washes in RPMI/BSA. Cells were resuspended in 5 mls of Binding Buffer. Cell number was measured on a Coulter counter and additional binding buffer was added to give a final concentration of 1.25×10^7 PBMCs/ml. […]
Test compound potency was determined by assay in duplicate using six point dose-response curves and IC50 concentrations were determined.

THP-1 cells [1] = experiment: hMCP-1 mediated chemotaxis of THP-1 cells; format: cell-based, human; conditions: biphasic response
Protocol: In vitro chemotaxis assays were performed using the human monocytic cell line THP-1. Cell migration through polycarbonate membranes was measured by enumerating those passing through either directly by Coulter counting or indirectly by use of a colourimetric viability assay measuring the cleavage of a tetrazolium salt by the mitochondrial respiratory chain (Scudiero D. A. et al. 1988, Cancer Res., 48, 4827-4833).
Chemoattractants were introduced into a 96-well microtitre plate which forms the lower well of a chemotaxis chamber fitted with a PVP-free 5 μm poresize polycarbonate adhesive framed filter membrane (NeuroProbe MB series, Cabin John, Md. 20818. USA) according to the manufacturer's instructions. […] The plate was incubated at 37° C. for 3 h and the absorbance of the soluble formazan product was read on a microtitre plate reader at 450 nm. The data was input into a spreadsheet, corrected for any random migration in the absence of chemoattractant and the average absorbance values, standard error of the mean, and significance tests were calculated. hMCP-1 induced concentration dependent cell migration with a characteristic biphasic response, maximal […]. […]

THP-1 cells [2] = experiment: MCP-1 mediated calcium flux in THP-1 cells; format: cell-based, human; conditions: stimulation of THP-1 cells with hMCP-1; read-out: EC50 of rise in [Ca2+]i
Protocol: The human monocytic cell line THP-1 as grown in a synthetic cell culture medium RPMI 1640 supplemented with 10% foetal calf serum, 6 mM glutamine and Penicillin-Streptomycin (at 50 μg streptomycin/ml, Gibco BRL). THP-1 cells were washed in HBSS (lacking Ca^2+ and Mg^2+)+1 mg/ml BSA and resuspended in the same buffer at a density of 3×10^6 cells/ml. The cells were then loaded with […] FURA-2/AM for 30 min at 37° C., washed twice in HBSS, and resuspended at 1×10^6 cells/mil. THP-1 cell suspension (0.9 ml) was added to a 5 ml disposable cuvette containing a magnetic stirrer bar and 2.1 ml of prewarmed (37° C.) HBSS containing 1 mg/ml BSA, 1 mM MgCl, and 2 mM CaCl2. The cuvette was placed in a fluorescence spectrophotometer (Perkin Elmer, Norwalk. Conn.) and preincubated for 4 min at 37° C. with stirring. Fluorescence was recorded over 70 sec and cells were stimulated by addition of hMCP-1 to the cuvette after 10 sec. [Ca^2+]i was measured by excitation at 340 nm and 380 nm alternately and subsequent measurement of the intensity of the fluorescence emission at 510 nm.
where the Kd for FURA-2 Ca^2+ complex at 37° C. was taken to be 224 nm. […]

MCP-1 receptor B (CCR2B) = molecular target: T2, MCP-1 receptor B (CCR2B) (Homo sapiens, UniProt P41597); experiment: hMCP-1 receptor binding assay, 125I MCP-1 on CHO-CCR2B cell membranes
T2 construct: expressed in transfected cells; host or cells: CHO-K1 (clone 7, CHO-CCR2B), membrane fragments
T2 sequence (P41597 1-360 isoform P41597-2): T1 sequence (P41597 1-360 isoform P41597-2)
Excerpt: The MCP-1 receptor B (CCR2B) cDNA was cloned by PCR from THP-1 cell RNA using suitable oligonucleotide primers based on the published MCP-1 receptor sequences (Charo et al., 1994, Proc. Natl. Acad. Sci. USA, 91, 2752). The resulting PCR products were cloned into vector PCR-II™ (InVitrogen, San Diego, Calif.). Error free CCR2B cDNA was subcloned as a Hind III-Not I fragment into the eukaryotic expression vector pCDNA3 (InVitrogen) to generate pCDNA3/CC-CKR2A and pCDNA3/CCR2B respectively.
Linearised pCDNA3/CCR2B DNA was transfected into CHO-K1 cells by calcium phosphate precipitation (Wigler et al., 1979, Cell, 16, 777). Transfected cells were selected by the addition of Geneticin Sulphate (G418, Gibco BRL) at 1 mg/ml, 24 hours after the cells had been transfected. Preparation of RNA and Northern blotting were carried out as described previously (Needham et al., 1995, Prot. Express. Purific., 6. 134). CHO-K1 clone 7 (CHO-CCR2B) was identified as the highest MCP-1 receptor B expressor.
CHO-CCR2B cells were grown in DMEM supplemented with 10% foetal calf serum, 2 mM glutamine. 1×Non-Essential Amino Acids. 1×Hypoxanthine and Thymidine Supplement and Penicillin-Streptomycin (at 50 μg streptomycin/ml, Gibco BRL). Membrane fragments were prepared using cell lysis/differential centrifugation methods as described previously (Siciliano et al., 1990, J. Biol. Chem., 265, 19658). […]

Row | IC50 (hMCP-1 receptor) [nM] | EC50 (THP-1 cells [2]) [nM] | IC50 (MCP-1 receptor B (CCR2B); cold competition with 100 pM 125I-labeled MCP-1, CHO-CCR2B membrane fragments) [nM] | Kd (MCP-1 receptor B (CCR2B); equilibrium binding, CHO-CCR2B membrane fragments) [nM] | Molecule | concentration of maximal cell migration (THP-1 cells [1])
1 | 640 | – | – | – | CS(=O)(=O)NCCNC(=O)c1cccc2c1cc(C(=O)O)n2Cc1ccc(Cl)c(Cl)c1 [Compound 9] | –
2 | – | ~2 | 0.11 | 0.12 | MCP-1: Human Monocyte Chemoattractant Protein-1, a C—C chemokine, ligand of the MCP-1 (CCR2) receptor | 0.5-1.0 nm
